The source of these data is US20250230193A1, “CYCLIC COMPOUND HAVING SELECTIVE KRAS INHIBITORY EFFECT ON HRAS AND NRAS” (CHUGAI SEIYAKU KABUSHIKI KAISHA, priority 2022, published 2025).

In experiment [1] the target is GDP-bound NRAS wild-type protein (Homo sapiens, UniProt P01111). Nature of the experiment: Binding to NRAS by surface plasmon resonance (SPR), Single Cycle Kinetics. The following applies: KD ratio NRAS/KRAS, SPR, GDP-bound wild-type proteins.
Experiment [2] has as its target GDP-bound HRAS wild-type protein (Homo sapiens, UniProt P01112). Kind of experiment: Binding to HRAS by surface plasmon resonance (SPR), Single Cycle Kinetics. Conditions: KD ratio HRAS/KRAS, SPR, GDP-bound wild-type proteins.

GDP-bound HRAS wild-type protein, sequence (P01112 whole entry): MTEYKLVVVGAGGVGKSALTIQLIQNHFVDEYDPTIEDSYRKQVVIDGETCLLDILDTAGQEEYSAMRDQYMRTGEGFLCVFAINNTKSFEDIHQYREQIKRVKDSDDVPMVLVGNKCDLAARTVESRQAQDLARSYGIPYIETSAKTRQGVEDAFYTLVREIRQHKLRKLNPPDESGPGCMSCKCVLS
GDP-bound NRAS wild-type protein, sequence (P01111 whole entry): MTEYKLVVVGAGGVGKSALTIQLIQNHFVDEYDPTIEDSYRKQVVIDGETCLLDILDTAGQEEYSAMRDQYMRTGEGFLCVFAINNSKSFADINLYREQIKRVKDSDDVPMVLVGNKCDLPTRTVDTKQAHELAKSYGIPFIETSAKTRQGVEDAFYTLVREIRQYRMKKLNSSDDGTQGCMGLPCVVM

Take `CCO[C@@H]1C[C@H]2C(=O)NC3(CC(C)(C)C3)C(=O)N(C)[C@@H](C(CC)CC)C(=O)N(C)[C@H](C(=O)N(C)C)CC(=O)N(C)[C@H]3CCCCCCc4ccc(cc4)C[C@@H](C(=O)N(C)CC(=O)N[C@@H](CCc4ccc(C(F)(F)F)c(OC)c4)C(=O)N2C1)N1CC/C=C\C[C@@H](C1=O)N(C)C(=O)CN(C)C(=O)[C@H]([C@@H](C)CC)NC3=O` [PP3032]: the “NRAS/KRAS (ratio of KD value with respect to GDP-bound NRAS wild-type protein to KD value with respect to KRAS)” value in experiment [1] is reported as “AA (a compound having 20 or more is denoted as AA)”. Besides, the “HRAS/KRAS (ratio of KD value with respect to GDP-bound HRAS wild-type protein to KD value with respect to KRAS)” value in experiment [2] was “A (a compound having 10 or more and less than 20 is denoted as A)”.

`CCO[C@@H]1C[C@H]2C(=O)NC3(CCC3)C(=O)N(C)[C@@H](C3CCCC3)C(=O)N(C)[C@H](C(=O)N3CCCCC3)CC(=O)N(C)[C@H]3CCCCCCc4ccc(cc4)C[C@@H](C(=O)N(C)CC(=O)N[C@@H](CCc4ccc(C(F)(F)F)c(OC)c4)C(=O)N2C1)N1CC/C=C\C[C@@H](C1=O)N(C)C(=O)CN(C)C(=O)[C@H]([C@@H](C)CC)NC3=O` [PP3033, (1S,7S,11R,13S,19S,22S,26S,29S,35S,37Z)-19-cyclopentyl-11-ethoxy-7-[2-[3-methoxy-4-(trifluoromethyl)phenyl]ethyl]-3,18,21,25,31,34-hexamethyl-29-[(1S)-1-methylpropyl]-22-(piperidine-1-carbonyl)spiro[3,6,9,15,18,21,25,28,31,34,41-undecazapentacyclo[24.15.11.2^43,46.1^35,41.0^9,13]pentapentaconta-37,43(54),44,46(53)-tetraene-16,1′-cyclobutane]-2,5,8,14,17,20,24,27,30,33,55-undecone]: the “NRAS/KRAS (ratio of KD value with respect to GDP-bound NRAS wild-type protein to KD value with respect to KRAS)” value in experiment [1] is “A (a compound having 10 or more and less than 20 is denoted as A)”. For the same compound, the “HRAS/KRAS (ratio of KD value with respect to GDP-bound HRAS wild-type protein to KD value with respect to KRAS)” value in experiment [2] is “B (a compound having 3 or more and less than 10 is denoted as B)”.

On to `CCO[C@@H]1C[C@H]2C(=O)NC3(CC(C)(C)C3)C(=O)N(C)[C@@H](C3CCCC3)C(=O)N(C)[C@H](C(=O)N3CCCC3)CC(=O)N(C)[C@H]3CCCCCCc4ccc(cc4)C[C@@H](C(=O)N(C)CC(=O)N[C@@H](CCc4ccc(C(F)(F)F)c(OC)c4)C(=O)N2C1)N1CC/C=C\C[C@@H](C1=O)N(C)C(=O)CN(C)C(=O)[C@H]([C@@H](C)CC)NC3=O` [PP3034, (1S,7S,11R,13S,19S,22S,26S,29S,35S,37Z)-19-cyclopentyl-11-ethoxy-7-[2-[3-methoxy-4-(trifluoromethyl)phenyl]ethyl]-3,3′,3′,18,21,25,31,34-octamethyl-29-[(1S)-1-methylpropyl]-22-(pyrrolidine-1-carbonyl)spiro[3,6,9,15,18,21,25,28,31,34,41-undecazapentacyclo[24.15.11.2^43,46.1^35,41.0^9,13]pentapentaconta-37,43(54),44,46(53)-tetraene-16,1′-cyclobutane]-2,5,8,14,17,20,24,27,30,33,55-undecone], for which, in experiment [1], the “NRAS/KRAS (ratio of KD value with respect to GDP-bound NRAS wild-type protein to KD value with respect to KRAS)” value was “A (a compound having 10 or more and less than 20 is denoted as A)”. The “HRAS/KRAS (ratio of KD value with respect to GDP-bound HRAS wild-type protein to KD value with respect to KRAS)” value in experiment [2] is “B (a compound having 3 or more and less than 10 is denoted as B)”.

For `CCO[C@@H]1C[C@H]2C(=O)NC3(CC(C)(C)C3)C(=O)N(C)[C@@H](C(CC)CC)C(=O)N(C)[C@H](C(=O)N(C)C)CC(=O)N(C)[C@H]3CCCCCc4ccc(cc4)C[C@@H](C(=O)N(C)CC(=O)N[C@@H](CCc4ccc(C(F)(F)F)c(OC)c4)C(=O)N2C1)N1CC/C=C\C[C@@H](C1=O)N(C)C(=O)CN(C)C(=O)[C@H]([C@@H](C)CC)NC3=O` [PP3035], the “NRAS/KRAS (ratio of KD value with respect to GDP-bound NRAS wild-type protein to KD value with respect to KRAS)” value in experiment [1] is reported as “AA (a compound having 20 or more is denoted as AA)”. In experiment [2], the “HRAS/KRAS (ratio of KD value with respect to GDP-bound HRAS wild-type protein to KD value with respect to KRAS)” value was “A (a compound having 10 or more and less than 20 is denoted as A)”.

Regarding `CCO[C@@H]1C[C@H]2C(=O)NC3(CC(C)(C)C3)C(=O)N(C)[C@@H](C3CCCC3)C(=O)N(C)[C@H](C(=O)N3CCCCC3)CC(=O)N(C)[C@H]3CCCCCc4ccc(cc4)C[C@@H](C(=O)N(C)CC(=O)N[C@@H](CCc4ccc(C(F)(F)F)c(OC)c4)C(=O)N2C1)N1CC/C=C\C[C@@H](C1=O)N(C)C(=O)CN(C)C(=O)[C@H]([C@@H](C)CC)NC3=O` [PP3036, (1S,7S,11R,13S,19S,22S,26S,29S,35S,37Z)-19-cyclopentyl-11-ethoxy-7-[2-[3-methoxy-4-(trifluoromethyl)phenyl]ethyl]-3,3′,3′,18,21,25,31,34-octamethyl-29-[(1S)-1-methylpropyl]-22-(piperidine-1-carbonyl)spiro[3,6,9,15,18,21,25,28,31,34,41-undecazapentacyclo[24.15.10.2^43,46.1^35,41.0^9,13]tetrapentaconta-37,43(53),44,46(52)-tetraene-16,1′-cyclobutane]-2,5,8,14,17,20,24,27,30,33,54-undecone], the “NRAS/KRAS (ratio of KD value with respect to GDP-bound NRAS wild-type protein to KD value with respect to KRAS)” value in experiment [1] is “A (a compound having 10 or more and less than 20 is denoted as A)”. Moreover, the “HRAS/KRAS (ratio of KD value with respect to GDP-bound HRAS wild-type protein to KD value with respect to KRAS)” value in experiment [2] is “B (a compound having 3 or more and less than 10 is denoted as B)”.

Take `CCO[C@@H]1C[C@H]2C(=O)NC3(CC(C)(C)C3)C(=O)N(C)[C@@H](C3CCCC3)C(=O)N(C)[C@H](C(=O)N3CCCC3)CC(=O)N(C)[C@H]3CCCCCc4ccc(cc4)C[C@@H](C(=O)N(C)CC(=O)N[C@@H](CCc4ccc(C(F)(F)F)c(OC)c4)C(=O)N2C1)N1CC/C=C\C[C@@H](C1=O)N(C)C(=O)CN(C)C(=O)[C@H]([C@@H](C)CC)NC3=O` [PP3037, (1S,7S,11R,13S,19S,22S,26S,29S,35S,37Z)-19-cyclopentyl-11-ethoxy-7-[2-[3-methoxy-4-(trifluoromethyl)phenyl]ethyl]-3,3′,3′,18,21,25,31,34-octamethyl-29-[(1S)-1-methylpropyl]-22-(pyrrolidine-1-carbonyl)spiro[3,6,9,15,18,21,25,28,31,34,41-undecazapentacyclo[24.15.10.2^43,46.1^35,41.0^9,13]tetrapentaconta-37,43(53),44,46(52)-tetraene-16,1′-cyclobutane]-2,5,8,14,17,20,24,27,30,33,54-undecone]: the “NRAS/KRAS (ratio of KD value with respect to GDP-bound NRAS wild-type protein to KD value with respect to KRAS)” value in experiment [1] was “A (a compound having 10 or more and less than 20 is denoted as A)”. The “HRAS/KRAS (ratio of KD value with respect to GDP-bound HRAS wild-type protein to KD value with respect to KRAS)” value in experiment [2] was “B (a compound having 3 or more and less than 10 is denoted as B)”.

For the compound `CCCO[C@@H]1C[C@H]2C(=O)NC3(CC(C)(C)C3)C(=O)N(C)[C@@H](C(CC)CC)C(=O)N(C)[C@H](C(=O)N(C)C)CC(=O)N(C)[C@H]3CCCCc4ccc(cc4)C[C@@H](C(=O)N(C)CC(=O)N[C@@H](CCc4ccc(C(F)(F)F)c(OC)c4)C(=O)N2C1)N1CC/C=C\C[C@@H](C1=O)N(C)C(=O)CN(C)C(=O)[C@H]([C@@H](C)CC)NC3=O` [PP3038], the “NRAS/KRAS (ratio of KD value with respect to GDP-bound NRAS wild-type protein to KD value with respect to KRAS)” value in experiment [1] is “A (a compound having 10 or more and less than 20 is denoted as A)”. The “HRAS/KRAS (ratio of KD value with respect to GDP-bound HRAS wild-type protein to KD value with respect to KRAS)” value in experiment [2] is “A (a compound having 10 or more and less than 20 is denoted as A)”.

Regarding `CCO[C@@H]1C[C@H]2C(=O)NC3(CCC3)C(=O)N(C)[C@@H](C(CC)CC)C(=O)N(C)[C@H](C(=O)N3CCCCC3)CC(=O)N(C)[C@H]3CCC/C=C/c4ccc(cc4)C[C@@H](C(=O)N(C)CC(=O)N[C@@H](CCc4ccc(Cl)c(Cl)c4)C(=O)N2C1)N1CC/C=C\C[C@@H](C1=O)N(C)C(=O)CN(C1CC1)C(=O)[C@H]([C@@H](C)CC)NC3=O` [PP3039], the “NRAS/KRAS (ratio of KD value with respect to GDP-bound NRAS wild-type protein to KD value with respect to KRAS)” value in experiment [1] is recorded as “AA (a compound having 20 or more is denoted as AA)”. Further, in experiment [2], the “HRAS/KRAS (ratio of KD value with respect to GDP-bound HRAS wild-type protein to KD value with respect to KRAS)” value was “A (a compound having 10 or more and less than 20 is denoted as A)”.

On to `CCO[C@@H]1C[C@H]2C(=O)NC3(CCC3)C(=O)N(C)[C@@H](C(CC)CC)C(=O)N(C)[C@H](C(=O)N3CCCC3)CC(=O)N(C)[C@H]3CCC/C=C/c4ccc(cc4)C[C@@H](C(=O)N(C)CC(=O)N[C@@H](CCc4ccc(Cl)c(Cl)c4)C(=O)N2C1)N1CC/C=C\C[C@@H](C1=O)N(C)C(=O)CN(C1CC1)C(=O)[C@H]([C@@H](C)CC)NC3=O` [PP3040], for which the “NRAS/KRAS (ratio of KD value with respect to GDP-bound NRAS wild-type protein to KD value with respect to KRAS)” value in experiment [1] is “AA (a compound having 20 or more is denoted as AA)”. Also, the “HRAS/KRAS (ratio of KD value with respect to GDP-bound HRAS wild-type protein to KD value with respect to KRAS)” value in experiment [2] is “A (a compound having 10 or more and less than 20 is denoted as A)”.

With `CCO[C@@H]1C[C@H]2C(=O)NC3(CC(C)(C)C3)C(=O)N(C)[C@@H](C(CC)CC)C(=O)N(C)[C@H](C(=O)N(C)C)CC(=O)N(C)[C@H]3CCCC/C=C/c4ccc(cc4)C[C@@H](C(=O)N(C)CC(=O)N[C@@H](CCc4cc(F)c(C(F)(F)F)c(F)c4)C(=O)N2C1)N1CC/C=C\C[C@@H](C1=O)N(C)C(=O)CN(C)C(=O)[C@H]([C@@H](C)CC)NC3=O` [PP3044], the “NRAS/KRAS (ratio of KD value with respect to GDP-bound NRAS wild-type protein to KD value with respect to KRAS)” value in experiment [1] is listed as “AA (a compound having 20 or more is denoted as AA)”. Besides, the “HRAS/KRAS (ratio of KD value with respect to GDP-bound HRAS wild-type protein to KD value with respect to KRAS)” value in experiment [2] was “A (a compound having 10 or more and less than 20 is denoted as A)”.

For the compound `CCO[C@@H]1C[C@H]2C(=O)NC3(CC(C)(C)C3)C(=O)N(C)[C@@H](C(CC)CC)C(=O)N(C)[C@H](C(=O)N(C)C)CC(=O)N(C)[C@H]3CCCC/C=C/c4ccc(cc4)C[C@@H](C(=O)N(C)CC(=O)N[C@@H](CCc4ccc(Cl)c(Cl)c4)C(=O)N2C1)N1CC/C=C\C[C@@H](C1=O)N(C)C(=O)CN(C)C(=O)[C@H]([C@@H](C)CC)NC3=O` [PP3045], the “NRAS/KRAS (ratio of KD value with respect to GDP-bound NRAS wild-type protein to KD value with respect to KRAS)” value in experiment [1] was “AA (a compound having 20 or more is denoted as AA)”. Besides, in experiment [2], the “HRAS/KRAS (ratio of KD value with respect to GDP-bound HRAS wild-type protein to KD value with respect to KRAS)” value was “A (a compound having 10 or more and less than 20 is denoted as A)”.
